Measured values from US7777035B2, “Azaindazole compounds and methods of use” (Chemocentryx, Inc., priority 2005, dated 2010).

Molecular target: T1, CCR1 (Homo sapiens, UniProt P32246)
T1 construct: host or cells: THP-1 cells or monocytes isolated from human buffy coats
T1 sequence (P32246 1-355): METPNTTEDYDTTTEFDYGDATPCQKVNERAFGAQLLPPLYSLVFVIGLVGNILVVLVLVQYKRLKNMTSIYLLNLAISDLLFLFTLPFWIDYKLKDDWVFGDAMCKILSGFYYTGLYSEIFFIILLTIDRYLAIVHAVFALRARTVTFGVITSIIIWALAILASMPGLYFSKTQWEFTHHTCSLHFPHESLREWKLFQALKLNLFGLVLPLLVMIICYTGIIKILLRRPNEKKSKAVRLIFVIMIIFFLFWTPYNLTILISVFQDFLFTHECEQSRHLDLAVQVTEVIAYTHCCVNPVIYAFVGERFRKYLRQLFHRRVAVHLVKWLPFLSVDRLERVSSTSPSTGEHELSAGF
Assay: CCR1 chemotaxis assay or binding assay (activity given for either)
Details: either the chemotaxis assay or binding assay; CCR1 expressing cells (THP-1 or human monocytes); read-out: Activity (IC50 class)
Experimental: Cells were grown under 5% CO2/95% air, 100% humidity at 37° C. and subcultured twice weekly at 1:5 (cells were cultured at a density range of 2×10^5 to 2×10^6 cells/mL) and harvested at 1×10^6 cells/mL. THP-1 cells express CCR1 and can be used in CCR1 binding and functional assays.
Monocytes were isolated from human buffy coats using the Miltenyi bead isolation system (Miltenyi, Auburn, Calif.). Briefly, following a Ficoll gradient separation to isolate peripheral blood mononuclear cells, cells were washed with PBS and the red blood cells lysed using standard procedures. Remaining cells were labeled with anti-CD14 antibodies coupled to magnetic beads (Miltenyi Biotech, Auburn, Calif.). Labeled cells were passed through AutoMACS (Miltenyi, Auburn, Calif.) and positive fraction collected. Monocytes express CCR1 and can be used in CCR1 binding and functional assays.
CCR1 expressing cells were centrifuged and resuspended in assay buffer (20 Mm HEPES pH 7.1, 140 Mm NaCl, 1 Mm CaCl2, 5 Mm MgCl2, and with 0.2% bovine serum albumin) to a concentration of 5×10^6 cells/mL for THP-1 cells and 5×10^5 for monocytes. Binding assays were set up as follows. […] Reactions were aspirated onto GF/B glass filters pre-soaked in 0.3% polyethyleneimine (PEI) solution, on a vacuum cell harvester (Packard Instruments; Meriden, Conn.). Scintillation fluid (40 μl; Microscint 20, Packard Instruments) was added to each well, the plates were sealed and radioactivity measured in a Topcount scintillation counter (Packard Instruments). Control wells containing either diluent only (for total counts) or excess MIP-1α or MIP-1β (1 μg/mL, for non-specific binding) were used to calculate the percent of total inhibition for compound. The computer program Prism from GraphPad, Inc. (San Diego, Calif.) was used to calculate IC50 values.
Chemotaxis assays were performed using 5 ┌ m pore polycarbonate, polyvinylpyrrolidone-coated filters in 96-well chemotaxis chambers (Neuroprobe; Gaithersburg, Md.) using chemotaxis buffer (Hank's balanced salt solution (HBSS) and 1% FBS). CCR1 chemokine ligands (i.e., MIP-1α, CCL15/Leukotactin; R&D Systems; Minneapolis, Minn.) are use to evaluate compound mediated inhibition of CCR1 Mediated migration. Other chemokines (i.e., SDF-1α; R&D Systems; Minneapolis, Minn.) are used as specificity controls. […] The chambers were incubated 1-2 hours at 37° C., and the number of cells in the lower chamber quantified either by direct cell counts in five high powered fields per well or by the CyQuant assay (Molecular Probes), a fluorescent dye method that measures nucleic acid content and microscopic observation.
THP-1 cells and monocytes lack other chemokine receptors that bind the same set of chemokine ligands as CCR1 (i.e., MIP-1α, MPIF-1, Leukotactin, etc.). Equal numbers of cells were added to each well in the plate. The cells were then incubated with radiolabeled MIP-1α. Unbound ligand was removed by washing the cells, and bound ligand was determined by quantifying radioactive counts. […] Percent inhibition was determined by the equation: […]
In the assay, the amount of compound was varied; while cell number and ligand concentration were held constant.
One of the primary functions of chemokines is their ability to mediate the migration of chemokine receptor-expressing cells, such as white blood cells. […] THP-1 Myelomonocytic leukemia cells, which resemble monocytes, as wells as freshly isolated monocytes, were used as targets for chemoattraction by CCR1 chemokine ligands (i.e., MIP-1α, CCL15/leukotactin). […] In this assay, the amount of compound was varied; while cell number and chemokine agonist concentrations were held constant. After the chemotaxis chambers were incubated 1-2 hours at 37° C., the responding cells in the lower chamber were quantified by labeling with the CyQuant assay (Molecular Probes), a fluorescent dye method that measures nucleic acid content, and by measuring with a Spectrafluor Plus (Tecan).

Row | SMILES | IC50 [nM]
1 | COc1cc(N2CCN(C(=O)Cn3nc(-c4ncon4)c4cccnc43)CC2)ccc1Cl [Compound 1.058] | < 1000
2 | COc1cc(N2CCN(C(=O)Cn3ncc4ccncc43)CC2)ccc1Cl [Compound 1.019] | < 1000
3 | COc1cc(N2CCN(C(=O)Cn3nc(-c4ncco4)c4cccnc43)[C@@H](C)C2)c(F)cc1Cl [Compound 1.017] | < 1000
4 | COc1cc(N2CCN(C(=O)Cn3nc(-c4ncon4)c4cccnc43)[C@@H](C)C2)c(F)cc1Cl [Compound 1.056] | < 1000
5 | COc1cc(N2CCN(C(=O)Cn3nc(-c4nccs4)c4cccnc43)CC2)ccc1Cl [Compound 1.011] | 2500 to 12500
6 | CCOc1cc(N2CCN(C(=O)Cn3nc(-c4ncc[nH]4)c4cccnc43)CC2)c(F)cc1Cl [Compound 1.065] | < 1000
7 | COc1cc(N2CCN(C(=O)Cn3cc4ccncc4n3)[C@@H](C)C2)c(F)cc1Cl [Compound 1.009] | < 1000
8 | COc1cc(N2CCN(C(=O)Cn3ncc4c(S(C)(=O)=O)ccnc43)CC2)ccc1Cl [Compound 1.039] | < 1000
9 | COc1cc(N2CCN(C(=O)Cn3cc4ccc(C)nc4n3)CC2)ccc1Cl [Compound 1.032] | < 1000
10 | COc1cc(N2CCN(C(=O)Cn3nc(-c4nccs4)c4cccnc43)CC2)ccc1Cl [Compound 1.025] | < 1000
11 | COc1cc(N2CCN(C(=O)Cn3ncc4ccc(NC(C)=O)nc43)CC2)ccc1Cl [Compound 1.060] | < 1000
12 | COc1cc(N2CCN(C(=O)Cn3nc(N)c4ccc(C)nc43)CC2)ccc1Cl [Compound 1.055] | < 1000
13 | COc1cc(N2CCN(C(=O)Cn3ncc4ccncc43)[C@@H](C)C2)c(F)cc1Cl [Compound 1.034] | < 1000
14 | COc1cc(N2CCN(C(=O)Cn3nc(C)c4cccnc43)[C@@H](C)C2)c(F)cc1Cl [Compound 1.005] | < 1000
15 | COc1cc(N2CCN(C(=O)Cn3nc(S(C)(=O)=O)c4cccnc43)CC2)ccc1Cl [Compound 1.061] | < 1000
16 | COc1cc(N2CCN(C(=O)Cn3nc(-c4ncc[nH]4)c4cccnc43)CC2)c(F)cc1Cl [Compound 1.068] | < 1000
17 | COc1cc(N2CCN(C(=O)Cn3nc(N4CCOCC4)c4cccnc43)CC2)ccc1Cl [Compound 1.033] | < 1000
18 | COc1cc(N2CCN(C(=O)Cn3nc(-c4ncc[nH]4)c4cccnc43)C[C@@H]2C)ccc1Cl [Compound 1.072] | < 1000
19 | COc1cc(N2CCN(C(=O)Cn3cc4c(I)ccnc4n3)CC2)ccc1Cl [Compound 1.037] | < 1000
20 | COc1cc(N2CCN(C(=O)Cn3ncc4ccnc(N)c43)CC2)ccc1Cl [Compound 1.051] | < 1000
21 | COc1cc(N2CCN(C(=O)Cn3ncc4ccc(N=[N+]=[N-])nc43)CC2)ccc1Cl [Compound 1.048] | < 1000
22 | O=C(Cn1nc(-c2ncc[nH]2)c2cccnc21)N1CCN(c2cc(OCCF)c(Cl)cc2F)CC1 [Compound 1.066] | < 1000
23 | COc1cc(N2CCN(C(=O)Cn3nc(I)c4cccnc43)[C@@H](C)C2)c(F)cc1Cl [Compound 1.064] | < 1000
24 | COc1cc(N2CCN(C(=O)Cn3ncc4ccc(N)nc43)CC2)ccc1Cl [Compound 1.049] | < 1000
25 | COc1cc(N2CCN(C(=O)Cn3cc4ncccc4n3)CC2)ccc1Cl [Compound 1.027] | < 1000
26 | COc1cc(N2CCN(C(=O)Cn3ncc4c(OC)ncnc43)CC2)ccc1Cl [Compound 1.045] | < 1000
27 | COc1cc(N2CCN(C(=O)Cn3ncc4ccc[n+]([O-])c43)CC2)ccc1Cl [Compound 1.030] | < 1000
28 | C[C@H]1CN(c2ccc(Cl)c(OCCF)c2)CCN1C(=O)Cn1nc(-c2ncc[nH]2)c2cccnc21 [Compound 1.076] | < 1000

Row | SMILES | IC50 [nM]
29 | COc1cc(N2CCN(C(=O)Cn3ncc4cnccc43)[C@@H](C)C2)c(F)cc1Cl [Compound 1.008] | < 1000
30 | COc1cc(N2CCN(C(=O)Cn3nc(Cl)c4cccnc43)CC2)ccc1Cl [Compound 1.004] | < 1000
31 | COc1cc(N2CCN(C(=O)Cn3ncc4cc(Cl)cnc43)CC2)ccc1Cl [Compound 1.042] | < 1000
32 | COc1cc(N2CCN(C(=O)Cn3nc(C#N)c4cccnc43)CC2)ccc1Cl [Compound 1.026] | < 1000
33 | COc1cc(N2CCN(C(=O)Cn3cc4c(Cl)nccc4n3)CC2)ccc1Cl [Compound 1.036] | < 1000
34 | COc1cc(N2CCN(C(=O)Cn3nc(F)c4cccnc43)CC2)ccc1Cl [Compound 1.016] | < 1000
35 | COc1cc(N2CCN(C(=O)Cn3nc(-c4ncc[nH]4)c4cccnc43)C[C@H]2C)ccc1Cl [Compound 1.071] | < 1000
36 | COc1cc(N2CCN(C(=O)Cn3nc(CN=[N+]=[N-])c4cccnc43)CC2)ccc1Cl [Compound 1.040] | < 1000
37 | CCOc1cc(N2CCN(C(=O)Cn3nc(-c4ncc[nH]4)c4cccnc43)[C@@H](C)C2)ccc1Cl [Compound 1.074] | < 1000
38 | COc1cc(N2CCN(C(=O)Cn3cc4cccnc4n3)[C@@H](C)C2)c(F)cc1Cl [Compound 1.002] | < 1000
39 | COc1cc(N2CCN(C(=O)Cn3nc(-c4ccccn4)c4cccnc43)CC2)ccc1Cl [Compound 1.010] | < 1000
40 | COc1cc(N2CCN(C(=O)Cn3ncc4cccnc43)CC2)c(F)cc1Cl [Compound 1.012] | < 1000
41 | COc1cc(N2CCN(C(=O)Cn3nc(C)c4cccnc43)CC2)ccc1Cl [Compound 1.014] | 1000 to 2500
42 | COc1cc(N2CCN(C(=O)Cn3nc(-c4ncco4)c4cccnc43)CC2)ccc1Cl [Compound 1.015] | < 1000
43 | COc1cc(N2CCN(C(=O)Cn3nc(-c4ncc[nH]4)c4cccnc43)[C@@H](C)C2)ccc1Cl [Compound 1.069] | < 1000
44 | COc1cc(N2CCN(C(=O)Cn3nc(CN)c4cccnc43)CC2)ccc1Cl [Compound 1.062] | 1000 to 2500
45 | COc1cc(N2CCN(C(=O)Cn3nc4ncccc4c3-c3ncco3)CC2)ccc1Cl [Compound 1.052] | < 1000
46 | COc1cc(N2CCN(C(=O)Cn3ncc4c(Cl)ncnc43)CC2)ccc1Cl [Compound 1.044] | < 1000
47 | Cc1cc(N2CCN(C(=O)Cn3nc(-c4ncc[nH]4)c4cccnc43)CC2)ccc1Cl [Compound 1.077] | < 1000
48 | COc1cc(N2CCN(C(=O)Cn3nc(N)c4cccnc43)[C@@H](C)C2)c(F)cc1Cl [Compound 1.003] | < 1000
49 | COc1cc(N2CCN(C(=O)Cn3nc4ncccc4c3Cl)CC2)ccc1Cl [Compound 1.029] | < 1000
50 | COc1cc(N2CCN(C(=O)Cn3ncc4cc[n+]([O-])cc43)CC2)ccc1Cl [Compound 1.035] | < 1000
51 | COc1cc(N2CCN(C(=O)Cn3nc(-c4ccccn4)c4cccnc43)[C@@H](C)C2)c(F)cc1Cl [Compound 1.022] | < 1000
52 | COc1cc(N2CCN(C(=O)Cn3nc(-c4noc(C)n4)c4cccnc43)CC2)ccc1Cl [Compound 1.059] | < 1000
53 | COc1cc(N2CCN(C(=O)Cn3nc(-c4ncc[nH]4)c4cccnc43)[C@@H](C)C2)c(F)cc1Cl [Compound 1.070] | < 1000
54 | COc1cc(N2CCN(C(=O)Cn3cc4cccnc4n3)CC2)ccc1Cl [Compound 1.006] | < 1000
55 | COc1cc(N2CCN(C(=O)Cn3nc(I)c4cccnc43)CC2)ccc1Cl [Compound 1.063] | < 1000
